Measured values reported in patent EP3436024B1, “3-BETA-METHOXY-PREG FOR USE IN THE TREATMENT OF TREATMENT RESISTANT DEPRESSION” (Mapreg, priority 2016, dated 2017).

Columns and labels:
Wistar Kyoto (WKY) rats [1] = experiment: Locomotor activity in the open-field arena, WKY rats; assay type: in vivo, rat; conditions: acute, fluoxetine 10 mg/kg i.p., ketamine 30 mg/kg i.p., 3 min, Fig. 5A
Method: (§1) After a 6-day period of acclimatization, all experimental groups received daily successive subcutaneous (250 µl per rat) and intraperitoneal (1 ml/kg) injections. WI rats received injection of vehicle (sesame oil + saline) while WKY rats were randomly assigned to […], as follow: KWY rats receiving only vehicle (sesame oil + saline) and WKY rats treated with MAP4343 (10 mg/kg, s.c.; rats received in parallel i.p. injections of saline), fluoxetine (10 mg/kg i.p., rats received in parallel s.c. injections of sesame oil) or ketamine (30 mg/kg, i.p.; rats received in parallel s.c. injections of sesame oil) (see Figure 3).
(§2) After, a 6-day period of acclimatization, the acute phase of treatment started for 4 days during behavioral tests were performed (Figure 3). All animals were injected 1h30 before the starting of behavioral test.
(§3) The animals were individually placed in the open field arena (OFA) (70 x 100 x 70 cm), with a central square (35 x 50 cm), located in a 50 lux illuminated room and videotaped during 3 min using a computerized system (VideoTrack V2.5, ViewPoint, Lyon, France).
(§4) OFA allows firstly the evaluation of total locomotor activity (LMA) thereby measuring the total distance travelled in the arena (in cm). Secondly, measurements of the activity in the center of the arena like (i) the number of entries in the center of arena and (ii) the total time spent in the center of arena (in sec) provide cues of anxiety-like behavior (Prut and Belzung, 2003). All these behavioral parameters were instantaneously measured automatically with the VideoTrack V2.5 software from the videos.

Wistar Kyoto (WKY) rats [2] = experiment: Anxious-like behavior: activity in the central square of the open-field arena, WKY rats; assay type: in vivo, rat; conditions: acute, MAP4343 10 mg/kg s.c., fluoxetine 10 mg/kg i.p., ketamine 30 mg/kg i.p.
Method: as §1, §2, §3, §4

Wistar Kyoto (WKY) rats [3] = experiment: Forced swimming test (FST), WKY rats; assay type: in vivo, rat; conditions: acute administration (4 days), MAP4343 10 mg/kg, fluoxetine 10 mg/kg i.p., ketamine 30 mg/kg i.p., Fig. 6C
Method: 3B-methoxy-PREG (also referred to as "MAP4343" in Example 4) was dissolved in sesame oil by sonication using a Sonifer-450 (Branson Ultrasonics Corporation, Danbury, USA) during 1 cycle of 5 pulses in sesame oil. Fluoxetine (Biotrend, Köln, Germany) and Ketamine (Sigma-Aldrich, St-Quentin Fallvier, France) were dissolved in sterile saline solution (NaCl 0.9%). The drug formulations were prepared freshly each day of treatment. MAP4343 was administered subcutaneously (ranging of 1-15 mg/Kg/day) while fluoxetine and ketamine were injected intraperitonealy (10 mg/Kg/day and 30 mg/Kg/day, respectively).
After a 6-day period of acclimatization, all experimental groups received daily successive subcutaneous (250 µl per rat) and intraperitoneal (1 ml/kg) injections. […]
Rats were submitted to the forced swimming test (FST), according the procedure initially described by (Detke et al., 1995) and slightly modified by (Bianchi et al., 2002). […] The pre-test and test sessions were recorded using a video camera placed above the cylinder for subsequent behavioral analysis. The immobility time (in sec) was blindly measured by two independent experimenters from recorded videos. […]
The effects of a dose-ranging administration of MAP4343 were tested in WI and WKY rats on their immobility time measured in FST.

Wistar Kyoto (WKY) rats [4] = experiment: Elevated-plus maze (EPM), WKY rats; assay type: in vivo, rat; conditions: acute, fluoxetine 10 mg/kg, Fig. 5D
Method: as §1, §2
We used the elevated-plus maze (EPM) as an assay of anxiety-related behavior in rodents (Walf and Frye, 2007). Rats were initially placed in the center of the plus-maze, consisting of two open arms (50 x 10 cm) and two closed arms (50 x 10 cm enclosed by 40 cm walls), in a 50 lux illuminated room and videotaped during 5 min using a computerized system (VideoTrack V2.5, ViewPoint, Lyon, France). The time spent in the open versus closed arms was blindly measured by two independent experimenters from the recorded video, and the open arm-index was calculated as follow: time in the open arms (sec) / [time in open arms (sec) + time in closed arms (sec)].

[5] = Body weight of treated WKY rats; assay type: in vivo; conditions: fluoxetine 10 mg/kg i.p., 4 days

CNCCC(Oc1ccc(C(F)(F)F)cc1)c1ccccc1 (centres unmarked) [fluoxetine]
locomotor activity (total distance travelled in the open-field arena), change as compared to WKY receiving vehicle (Wistar Kyoto (WKY) rats [1]; MAP4343 10 mg/kg s.c.): -45% | locomotor activity (total distance travelled in the open-field arena), change as compared to MAP4343-treated WKY (Wistar Kyoto (WKY) rats [1]): -52% | number of entries in the central square of OFA, change as compared to WKY receiving only vehicle (Wistar Kyoto (WKY) rats [2]; Fig. 5B): failed to significantly modify | time spent in the center of open-field, change as compared to WKY receiving vehicle (Wistar Kyoto (WKY) rats [2]; Fig. 5C): did not induce any significant change | immobility time measured in FST, change when compared to WKY rats receiving vehicle alone (Wistar Kyoto (WKY) rats [3]): +29% | open-arm (OA) index, change when compared to WKY receiving vehicle alone (Wistar Kyoto (WKY) rats [4]; MAP4343 10 mg/kg s.c., ketamine 30 mg/kg i.p.): -84% | open-arm (OA) index, change when compared to MAP4343-treated WKY (Wistar Kyoto (WKY) rats [4]): -95% | body weight [5]: reduced body weight
